The values below come from US20230416205A1, “COMPOUNDS, COMPOSITIONS, AND METHODS” (Denali Therapeutics Inc, priority 2020, published 2023).

pIC50: −log10 of the molar value. Read-outs that look alike come from different tables or passages of the source.

This experiment deals with NLRP3. Put plainly: IL-1β secretion assay in PMA-differentiated, LPS/nigericin-stimulated THP-1 cells (384-well, ELISA read-out). It is filed as cell-based, human. Conditions: Homo sapiens. The essentials: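 Secreted IL-1β quantified by capture ELISA from supernatants of PMA-differentiated THP-1 cells (30K per well). Sequence: LPS 25 ng/mL priming 2 h, compound 1 h, nigericin 2 h; dose-responses normalized between high (LPS plus 5 μM nigericin) and low (LPS alone) controls.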

[1] abbreviates: THP-1, IL-1β secretion, PMA-differentiated THP-1 cells, LPS then nigericin stimulation, ELISA read at 450 nm, read-out: Activity.
Where [2] appears, read: THP-1, Table 4, IL-1β secretion, LPS/nigericin-stimulated THP-1 cells, read-out: IC50.

As for `O=C(CN1CC2(CC2)c2cc(Br)ccc2C1=O)Nc1ccc2cnccc2c1` [Example 136, 2-(6-bromo-1-oxospiro[3H-isoquinoline-4,1′-cyclopropane]-2-yl)-N-isoquinolin-6-ylacetamide], the pIC50 under setting [1] is > 5.00.

For `CS(=O)(=O)NCCNC(=O)CN1CC2(CC2)c2cc(Br)ccc2C1=O` [Example 137, 2-(6-bromo-1-oxospiro[3H-isoquinoline-4,1′-cyclopropane]-2-yl)-N-[2-(methanesulfonamido)ethyl]acetamide], the pIC50 runs as follows: under setting [1], < 4.82; under setting [2], 4.66.

Take `COCCn1cc(NC(=O)CN2CC3(CC3)c3cc(Br)ccc3C2=O)cn1` [Example 138, 2-(6-bromo-1-oxospiro[3H-isoquinoline-4,1′-cyclopropane]-2-yl)-N-[1-(2-methoxyethyl)pyrazol-4-yl]acetamide]: the pIC50 is < 4.82 under setting [1] and 4.69 under setting [2].

With `CS(=O)(=O)CCNC(=O)CN1CC2(CC2)c2cc(Br)ccc2C1=O` [Example 139, 2-(6-bromo-1-oxospiro[3H-isoquinoline-4,1′-cyclopropane]-2-yl)-N-(2-methylsulfonylethyl)acetamide], the pIC50 is, setting by setting: under setting [1], < 4.82; under setting [2], 4.58.

As for `O=C(CN1CC2(CC2)c2cc(Br)ccc2C1=O)Nc1ccc2ncsc2c1` [Example 140, N-(1,3-benzothiazol-6-yl)-2-(6-bromo-1-oxospiro[3H-isoquinoline-4,1′-cyclopropane]-2-yl)acetamide], the pIC50 was > 5.00 under setting [1] and 6.05 under setting [2].

With `Cn1ncc2cc(NC(=O)CN3CC4(CC4)c4cc(Br)ccc4C3=O)ccc21` [Example 141, 2-(6-bromo-1-oxospiro[3H-isoquinoline-4,1′-cyclopropane]-2-yl)-N-(1-methylindazol-5-yl)acetamide], the pIC50 reads like this: under setting [1], > 5.00; under setting [2], 5.91.

With `Cc1nc(-c2cccc(NC(=O)CN3CC4(CC4)c4cc(Br)ccc4C3=O)c2)cs1` [Example 142, 2-(6-bromo-1-oxospiro[3H-isoquinoline-4,1′-cyclopropane]-2-yl)-N-[3-(2-methyl-1,3-thiazol-4-yl)phenyl]acetamide], the pIC50 reads like this: under setting [1], > 5.00; under setting [2], 5.75.

For the molecule `Cc1nc2ccc(NC(=O)CN3CC4(CC4)c4cc(Br)ccc4C3=O)cc2s1` [Example 143, 2-(6-bromo-1-oxospiro[3H-isoquinoline-4,1′-cyclopropane]-2-yl)-N-(2-methyl-1,3-benzothiazol-6-yl)acetamide], the pIC50 was > 5.00 under setting [1] and 5.85 under setting [2].

Take `Cc1cc(NC(=O)CN2CC3(CC3)c3cc(Br)ccc3C2=O)n(C)n1` [Example 144, 2-(6-bromo-1-oxospiro[3H-isoquinoline-4,1′-cyclopropane]-2-yl)-N-(2,5-dimethylpyrazol-3-yl)acetamide]: the pIC50 is, setting by setting: under setting [1], > 5.00; under setting [2], 5.41.

As to `O=C(CN1CC2(CC2)c2cc(Br)ccc2C1=O)Nc1nc2ccccc2[nH]1` [Example 145, N-(1H-benzimidazol-2-yl)-2-(6-bromo-1-oxospiro[3H-isoquinoline-4,1′-cyclopropane]-2-yl)acetamide], the pIC50 by setting is: under setting [1], > 5.00; under setting [2], 5.58.

Regarding `O=C(CN1CC2(CC2)c2cc(Br)ccc2C1=O)Nc1ccc2scnc2c1` [Example 146, N-(1,3-benzothiazol-5-yl)-2-(6-bromo-1-oxospiro[3H-isoquinoline-4,1′-cyclopropane]-2-yl)acetamide], the pIC50 is > 5.00 under setting [1] and 5.56 under setting [2].

For `Cn1cnc2cc(NC(=O)CN3CC4(CC4)c4cc(Br)ccc4C3=O)ccc21` [Example 147, 2-(6-bromo-1-oxospiro[3H-isoquinoline-4,1′-cyclopropane]-2-yl)-N-(1-methylbenzimidazol-5-yl)acetamide], the pIC50 was > 5.00 under setting [1] and 5.09 under setting [2].

For `O=C(CN1CC2(CC2)c2cc(Br)ccc2C1=O)Nc1cccc2ccncc12` [Example 148, 2-(6-bromo-1-oxospiro[3H-isoquinoline-4,1′-cyclopropane]-2-yl)-N-isoquinolin-8-ylacetamide], the pIC50 is, setting by setting: under setting [1], > 5.00; under setting [2], 5.75.

As for `Cc1cc(NC(=O)CN2CC3(CC3)c3cc(Br)ccc3C2=O)n(-c2ccccc2)n1` [Example 149, 2-(6-bromo-1-oxospiro[3H-isoquinoline-4,1′-cyclopropane]-2-yl)-N-(5-methyl-2-phenylpyrazol-3-yl)acetamide], the pIC50 is > 5.00 under setting [1] and 5.18 under setting [2].

In the case of `Cc1cc(C)nc(NC(=O)CN2CC3(CC3)c3cc(Br)ccc3C2=O)c1` [Example 150, 2-(6-bromo-1-oxospiro[3H-isoquinoline-4,1′-cyclopropane]-2-yl)-N-(4,6-dimethylpyridin-2-yl)acetamide], the pIC50 is > 5.00 under setting [1] and 5.68 under setting [2].

As to `O=C(CN1CC2(CC2)c2cc(Br)ccc2C1=O)NCc1cccnc1C(F)(F)F` [Example 151], the pIC50 is > 5.00 under setting [1] and 5.04 under setting [2].

In the case of `O=C(CN1CC2(CC2)c2cc(Br)ccc2C1=O)Nc1ccnn1-c1ccccc1` [Example 152, 2-(6-bromo-1-oxospiro[3H-isoquinoline-4,1′-cyclopropane]-2-yl)-N-(2-phenylpyrazol-3-yl)acetamide], the pIC50 is, setting by setting: under setting [1], < 4.82; under setting [2], 4.67.

Regarding `O=C(CN1CC2(CC2)c2cc(Br)ccc2C1=O)Nc1cncc2ccccc12` [Example 153, 2-(6-bromo-1-oxospiro[3H-isoquinoline-4,1′-cyclopropane]-2-yl)-N-isoquinolin-4-ylacetamide], the pIC50 is, setting by setting: under setting [1], < 4.82; under setting [2], 4.48.

Consider `Cc1c[nH]c(=O)c(NC(=O)CN2CC3(CC3)c3cc(Br)ccc3C2=O)c1` [Example 154, 2-(6-bromo-1-oxospiro[3H-isoquinoline-4,1′-cyclopropane]-2-yl)-N-(5-methyl-2-oxo-1H-pyridin-3-yl)acetamide], for which the pIC50 reads like this: under setting [1], > 5.00; under setting [2], 5.36.

Consider `O=C(CN1CC2(CC2)c2cc(Br)ccc2C1=O)Nc1cccn2ccnc12` [Example 155, 2-(6-bromo-1-oxospiro[3H-isoquinoline-4,1′-cyclopropane]-2-yl)-N-imidazo[1,2-a]pyridin-8-ylacetamide], for which the pIC50 under setting [1] was > 5.00 and the pIC50 under setting [2] was 5.44.

For `O=C(CN1CC2(CC2)c2cc(Br)ccc2C1=O)Nc1cnc2[nH]ccc2c1` [Example 156, 2-(6-bromo-1-oxospiro[3H-isoquinoline-4,1′-cyclopropane]-2-yl)-N-(1H-pyrrolo[2,3-b]pyridin-5-yl)acetamide], the pIC50 reads like this: under setting [1], > 5.00; under setting [2], 5.36.

Regarding `O=C(CN1CC2(CC2)c2cc(Br)ccc2C1=O)Nc1ccc2c(c1)OC(F)(F)O2` [Example 157, 2-(6-bromo-1-oxospiro[3H-isoquinoline-4,1′-cyclopropane]-2-yl)-N-(2,2-difluoro-1,3-benzodioxol-5-yl)acetamide], the pIC50 is > 5.00 under setting [1] and 5.00 under setting [2].

For `O=C1c2ccc(Br)cc2C2(CC2)CN1CC(=O)N1CCc2cccnc21` [Example 158, 6-bromo-2-[2-(2,3-dihydropyrrolo[2,3-b]pyridin-1-yl)-2-oxoethyl]spiro[3H-isoquinoline-4,1′-cyclopropane]-1-one], the pIC50 under setting [1] is > 5.00 and the pIC50 under setting [2] was 5.23.

Turning to `O=C(CN1CC2(CC2)c2cc(Br)ccc2C1=O)Nc1ccc2nncn2c1` [Example 159, 2-(6-bromo-1-oxospiro[3H-isoquinoline-4,1′-cyclopropane]-2-yl)-N-([1,2,4]triazolo[4,3-a]pyridin-6-yl)acetamide], the pIC50 reads like this: under setting [1], > 5.00; under setting [2], 5.75.

For `O=C(CN1CC2(CC2)c2cc(Br)ccc2C1=O)NC1(CO)CC1` [Example 160, 2-(6-bromo-1-oxospiro[3H-isoquinoline-4,1′-cyclopropane]-2-yl)-N-[1-(hydroxymethyl)cyclopropyl]acetamide], the pIC50 is > 5.00 under setting [1] and 5.38 under setting [2].

For `O=C(CN1CC2(CC2)c2cc(Br)ccc2C1=O)NC1(c2ccccc2)CC1` [Example 161, 2-(6-bromo-1-oxospiro[3H-isoquinoline-4,1′-cyclopropane]-2-yl)-N-(1-phenylcyclopropyl)acetamide], the pIC50 under setting [1] was > 5.00 and the pIC50 under setting [2] was 5.21.

`O=C(CN1CC2(CC2)c2cc(Br)ccc2C1=O)Nc1cccc2ncccc12` [Example 162, 2-(6-bromo-1-oxospiro[3H-isoquinoline-4,1′-cyclopropane]-2-yl)-N-quinolin-5-ylacetamide]: the pIC50 under setting [1] was > 5.00 and the pIC50 under setting [2] was 5.45.

On to `O=C(CN1CC2(CC2)c2cc(Br)ccc2C1=O)Nc1ncc(F)s1` [Example 163, 2-(6-bromo-1-oxospiro[3H-isoquinoline-4,1′-cyclopropane]-2-yl)-N-(5-fluoro-1,3-thiazol-2-yl)acetamide], for which the pIC50 reads like this: under setting [1], > 5.00; under setting [2], 5.18.

Consider `O=C(CN1CC2(CC2)c2cc(Br)ccc2C1=O)NCC1CCC1` [Example 164, 2-(6-bromo-1-oxospiro[3H-isoquinoline-4,1′-cyclopropane]-2-yl)-N-(cyclobutylmethyl)acetamide], for which the pIC50 by setting is: under setting [1], > 5.00; under setting [2], 5.22.

For `O=C(CN1CC2(CC2)c2cc(Br)ccc2C1=O)NC1CCN(c2ccc(Cl)nn2)CC1` [Example 165, 2-(6-bromo-1-oxospiro[3H-isoquinoline-4,1′-cyclopropane]-2-yl)-N-[1-(6-chloropyridazin-3-yl)piperidin-4-yl]acetamide], the pIC50 reads like this: under setting [1], > 5.00; under setting [2], 5.79.

For `O=C(CN1CC2(CC2)c2cc(Br)ccc2C1=O)Nc1n[nH]c2ccccc12` [Example 166, 2-(6-bromo-1-oxospiro[3H-isoquinoline-4,1′-cyclopropane]-2-yl)-N-(1H-indazol-3-yl)acetamide], the pIC50 is, setting by setting: under setting [1], > 5.00; under setting [2], 5.32.
